The target in one assay is T1, RORγt (Homo sapiens, UniProt P51449).
T1 construct: The resulting GAL4-RORγt-LBD fusion construct was placed under the control of a constitutive cytomegalovirus (CMV) promoter; expressed in transfected cells; host or cells: HEK293
T1 sequence (P51449 269-508 limits assumed): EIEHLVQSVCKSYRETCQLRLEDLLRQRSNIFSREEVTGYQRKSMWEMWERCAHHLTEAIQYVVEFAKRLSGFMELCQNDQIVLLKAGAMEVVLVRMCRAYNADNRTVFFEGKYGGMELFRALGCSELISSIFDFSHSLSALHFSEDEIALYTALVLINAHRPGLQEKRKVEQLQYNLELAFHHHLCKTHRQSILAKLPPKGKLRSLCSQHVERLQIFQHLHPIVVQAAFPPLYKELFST
In words: RORγ Reporter Assay (GAL4-UAS luciferase reporter in HEK293 cells). Type of assay: cell-based. As to the method:
Inhibition of RORγt in cells was determined using a GAL4-UAS reporter system in HEK293 cells employing a luciferase readout. The RORγt DNA binding domain (DBD) was replaced with the heterologous yeast GAL4 DBD using standard recombinant DNA methods. The resulting GAL4-RORγt-LBD fusion construct was placed under the control of a constitutive cytomegalovirus (CMV) promoter by cloning it into the CMV-driven mammalian expression vector pcDNA3.1+− (Promega Corporation, Madison, Wis.).
A transcriptional reporter expression construct was used to monitor GAL4-RORγ activity, which contained five copies of the GAL4 binding site enhancer (UAS) controlling expression of a firefly luciferase reporter. This construct, pGL4.31, is commercially available from Promega Corporation, Madison Wis. Both expression constructs were transfected in bulk into HEK-293 cells using standard lipid-based transfection techniques, which allowed the GAL4 RORγ-LBD fusion protein to drive expression of the luciferase reporter. Control transfections were performed with an empty pCDN3.1+ vector.
The next day, cells were plated into 384 well plates, test compound was added, and the plates were incubated overnight. […] Promega firefly assays kits were used to stabilize the luciferase signal, and the intensity of the luciferase signal was measured using an EnVision Multilabel Plate Reader (Perkin Elmer, Waltham, Mass.).
HEK 293 cells are transfected with GAL4-NR construct (CMV:NR-LBD in pcDNA3.1neo) and the pGL4.31 GAL4-luciferase reporter construct (Promega). For a background control, use empty pcDNA3.1neo and pGL4.31. Transfection protocol is for a single T75 flask performed with Minis Trans-It 293 reagent. A 60 μL aliquot of Trans-IT reagent at room temperature is added drop wise to 1.5 mL of Optimem (Invitrogen). The resulting solution is mixed by inversion and incubated for 5-20 minutes at room temperature. This reagent mixture is added to 10 μg of DNA (5 μg of each expression vector used at a concentration of 1 mg/mL). The solution is mixed by inversion and incubated at room temperature for 20 minutes.
While the Trans-IT reagent and DNA are incubating, harvest HEK-293 cells. Remove media from flasks via aspiration and add enough TrypLE Express (stable Trypsin-like reagent, Invitrogen) to cover the bottom of the flask. The mixture is incubated at room temperature until the cells are visibly loose in the flask (approximately 2-5 minutes). Add an equal volume of complete growth media, and then pipette to achieve a single cell suspension. Spin down 1×10^7 cells and re-suspend the cells in 10 mL of complete growth media (DMEM high glucose/10% dialyzed FBS/pen/strep; Invitrogen). The cells and transfection mixture are added to one T75 flask. The contents of the T75 flax are mixed and incubated overnight at 37° C. and 5% CO2.
After 16-24 hours, cells are harvested and plated for test compound screening. Cells may be harvested as described above. Next, cells are counted and an appropriate number of cells are spun down. Then, cells are aspirated and re-suspended in complete growth media at a concentration of 0.5×10^6 cells/mL to provide a cell suspension. Plate 20 μL of the cell suspension into a white, tissue-culture treated 384 well plate. (10,000 cells/well).
A 10 mM stock solution of test compound in dimethylsulfoxide (DMSO) was diluted to 500× the final test concentration in DMSO, then diluted to 5× the final test concentration with complete growth medium to provide the Test Compound Solution. The concentration of DMSO in the Test Compound Solution was […]. A 5 μL aliquot of Test Compound Solution was added to each test well in the 384 well plate previously plated with the cell suspension. Next, plates are spun briefly and incubated overnight at 37° C. and 5% CO2.
After 16-24 hours, the luciferase assay is performed. Plates and luciferase reagent (e.g. One-Glo® or Dual Glo®; Promega, Madison, Wis.) are brought to room temperature.

In the next assay the target is T2, RORγ-LBD (Homo sapiens, UniProt P51449).
T2 construct: HIS-tagged RORγ-LBD was recombinantly expressed in SF9 cells; made in house; host or cells: SF9 cells (baculovirus); unpurified lysate
T2 sequence (P51449 269-508 limits assumed): T1 sequence (P51449 269-508 limits assumed)
Put plainly: RORγ-Ligand Binding Domain TR-FRET Assay. The class given is biochemical. In short, it runs like this:
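IC50 derived from the 665 nm/615 nm emission ratio after 4 h to overnight incubation. Mixture: Sf9 lysate with His-tagged LBD (~10 nM final, not purified), SRC1-2 LXXLL biotin peptide at 450 nM, 2 nM europium anti-His antibody, 60 nM APC-streptavidin; buffer 25 mM HEPES pH 7.0, 100 mM NaCl, 0.01% Tween, 0.1% BSA.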

[1] abbreviates: Table 7, tetrahydroquinolines, HEK293 cells, read-out: RORγ HEK IC50.
The mark [2] stands for this setting: benzoxazines, Table 9, HEK cells.

Like-named read-outs stand apart in the source and are kept apart here.

On to `Cc1cc2c(cc1NC(=O)c1c(F)cccc1Cl)N(S(=O)(=O)c1ccc(F)cc1)CCC2` [Compound 6, 2-Chloro-6-fluoro-N-[1-(4-fluorobenzenesulfonyl)-6-methyl-1,2,3,4-tetrahydroquinolin-7-yl]benzamide], for which the IC50 at RORγt (setting [1]) is less than 15 µM. `O=C(Nc1ccc2c(c1)N(S(=O)(=O)c1ccc(Cl)cc1)CCC2)c1c(F)cccc1Cl` [Compound 5, 2-Chloro-N-[1-(4-chlorobenzenesulfonyl)-1,2,3,4-tetrahydroquinolin-7-yl]-6-fluorobenzamide]: at RORγt (setting [1]), the IC50 is less than 15 µM. Consider `O=C(Nc1c(Cl)cccc1Cl)c1ccc2c(c1)N(S(=O)(=O)c1ccc(F)cc1)CCO2` [VI-126], for which the IC50 against RORγt (setting [2]) is less than 15 µM.

At RORγt (setting [2]), `O=C(Nc1c(F)cccc1Cl)c1ccc2c(c1)N(S(=O)(=O)c1ccc(F)cc1)CCO2` [VI-127] yielded an IC50 of less than 15 µM. Turning to `Cc1cccc(S(=O)(=O)n2ncc3ccc(NC(=O)Cc4ccc(F)cc4)cc32)c1` [Compound V-25], the half-inhibitory concentration (IC50) at RORγ-LBD (Table 8, indazoles) is less than 15 µM. `O=C(Nc1ccc2cnn(S(=O)(=O)c3cccc(OC(F)(F)F)c3)c2c1)c1c(F)cccc1C(F)(F)F` [Compound V-50] gave an IC50 on RORγ-LBD (Table 8, indazoles) of less than 15 µM. On the same count and under the same terms, the same measure for `O=C(Nc1ccc2cnn(S(=O)(=O)c3ccccc3F)c2c1)c1c(F)cccc1Cl` [Compound V-143]: less than 15 µM; for `Cc1cccc(S(=O)(=O)n2ncc3ccc(NC(=O)Cc4cnc(C)s4)cc32)c1` [Compound V-5]: less than 15 µM; for `O=C(Nc1ccc2cnn(S(=O)(=O)c3ccccc3Br)c2c1)c1c(F)cccc1Cl` [Compound V-84]: less than 15 µM. `C[C@H]1CN(S(=O)(=O)c2cccc(C#N)c2)c2cc(NC(=O)c3c(Cl)cccc3C(F)(F)F)ccc2O1` [VI-5] returned an IC50 at RORγ-LBD (benzoxazines, Table 9) of less than 15 µM. On to `O=C(Nc1ccc2cnn(S(=O)(=O)c3cccc(C(F)(F)F)c3)c2c1)c1c(F)cccc1Cl` [Compound V-55], for which the half-inhibitory concentration (IC50) at RORγ-LBD (Table 8, indazoles) was less than 15 µM. Same read-out and setting: the same measure for `COC(=O)c1cc(C)c(S(=O)(=O)n2ncc3ccc(NC(=O)c4c(F)cccc4Cl)cc32)s1` [Compound V-152]: less than 15 µM.

The compound `O=C(Cc1ccc(F)cc1)Nc1ccc2c(c1)N(S(=O)(=O)c1ccc(Cl)cc1)C[C@@H](CO)O2` [VI-53] had an IC50 on RORγ-LBD (benzoxazines, Table 9) of less than 15 µM. The compound `CC(=O)c1cccc(S(=O)(=O)n2ncc3ccc(NC(=O)Cc4cnc(C)s4)cc32)c1` [Compound V-4] returned an IC50 on RORγ-LBD (Table 8, indazoles) of less than 15 µM.

Compound `O=C(Nc1ccc2cnn(S(=O)(=O)c3ccc(F)c(C(F)(F)F)c3)c2c1)c1c(F)cccc1F` [Compound V-56] returned a concentration for half-maximal inhibition (IC50) on RORγ-LBD (Table 8, indazoles) of less than 15 µM. Same read-out and setting: the same measure for `CNC(=O)Nc1ccc(S(=O)(=O)n2ncc3ccc(NC(=O)c4c(F)cccc4Cl)cc32)cc1` [Compound V-135]: less than 15 µM.

With `Cc1c(S(=O)(=O)n2ncc3ccc(NC(=O)c4c(F)cccc4Cl)cc32)cnn1C` [Compound V-110], on RORγ-LBD (Table 8, indazoles), the IC50 was less than 15 µM. The same measure, in the same setting: the same measure for `O=C(Nc1ccc2cnn(S(=O)(=O)c3ccc(F)c(Cl)c3)c2c1)c1c(F)cccc1Cl` [Compound V-76]: less than 15 µM.

In turn, `C[C@H]1CN(S(=O)(=O)c2ccc(F)cc2)c2cc(NC(=O)[C@H](C)c3ccccc3)ccc2O1` [VI-134] displayed an IC50 at RORγ-LBD (benzoxazines, Table 9) of less than 15 µM. In turn, `O=C(Nc1ccc2cnn(S(=O)(=O)c3cc(Cl)sc3Cl)c2c1)c1c(F)cccc1Cl` [Compound V-82] had a half-inhibitory concentration (IC50) on RORγ-LBD (Table 8, indazoles) of less than 15 µM. On to `O=C(Nc1ccc2cnn(S(=O)(=O)c3cccc(OC(F)F)c3)c2c1)c1c(Cl)cccc1C(F)(F)F` [Compound V-35], for which, on RORγ-LBD (Table 8, indazoles), the IC50 was less than 15 µM. `Cc1nn(C(F)F)cc1S(=O)(=O)n1ncc2ccc(NC(=O)c3c(F)cccc3F)cc21` [Compound V-13] showed a half-maximal inhibitory concentration (IC50) on RORγ-LBD (Table 8, indazoles) of less than 15 µM. For `CC(=O)c1cccc(S(=O)(=O)n2ncc3ccc(NC(=O)c4c(F)cccc4Cl)cc32)c1` [Compound V-122], the 50% inhibitory concentration (IC50) at RORγ-LBD (Table 8, indazoles) is less than 15 µM. The same measure, in the same setting: the same measure for `O=C(Nc1ccc2cnn(S(=O)(=O)Cc3ccc(Cl)cc3)c2c1)c1c(F)cccc1Cl` [Compound V-92]: less than 15 µM. In turn, `C[C@H]1CN(S(=O)(=O)c2ccc(F)cc2)c2cc(NC(=O)C3(c4ccc(Cl)cc4)CC3)ccc2O1` [VI-131] showed a half-inhibitory concentration (IC50) at RORγ-LBD (benzoxazines, Table 9) of less than 15 µM. On RORγ-LBD (benzoxazines, Table 9), `O=C(Nc1ccc2c(c1)N(S(=O)(=O)c1ccc(F)cc1)C(CO)CO2)c1c(F)cccc1Cl` (centres unmarked) [Compound 23, 2-Chloro-6-fluoro-N-[4-(4-fluorobenzenesulfonyl)-3-hydroxymethyl-3,4-dihydro-2H-benzo[1,5]oxazin-6-yl]benzamide] gave an IC50 of less than 15 µM.

For the compound `O=C(Nc1ccc2cnn(S(=O)(=O)Cc3ccc(C(F)(F)F)cc3)c2c1)c1c(F)cccc1Cl` [Compound V-140], the IC50 at RORγ-LBD (Table 8, indazoles) is less than 15 µM.

As for `O=C(Nc1ccc2cnn(S(=O)(=O)c3ccc(C(F)(F)F)cc3)c2c1)c1c(F)cccc1Cl` [Compound V-88], on RORγ-LBD (Table 8, indazoles), the IC50 is less than 15 µM. Turning to `Cc1nn(C(F)F)cc1S(=O)(=O)n1ncc2ccc(NC(=O)Cc3cc(F)cc(F)c3)cc21` [Compound V-14], the half-inhibitory concentration (IC50) on RORγ-LBD (Table 8, indazoles) was less than 15 µM. Consider `COC(=O)c1ccc(S(=O)(=O)n2ncc3ccc(NC(=O)c4c(F)cccc4Cl)cc32)o1` [Compound V-151], for which the IC50 on RORγ-LBD (Table 8, indazoles) is less than 15 µM. Still for that read-out and setting: the same measure for `Cc1cc(F)ccc1S(=O)(=O)n1ncc2ccc(NC(=O)c3ccc(F)cc3Cl)cc21` [Compound V-77]: less than 15 µM. On to `N#Cc1cccc(S(=O)(=O)N2C[C@H](CO)Oc3ccc(NC(=O)Cc4ccc(Cl)cc4)cc32)c1` [VI-61], for which the IC50 on RORγ-LBD (benzoxazines, Table 9) is less than 15 µM. Consider `CC(C)(C)c1cccc(S(=O)(=O)n2ncc3ccc(NC(=O)c4c(F)cccc4Cl)cc32)c1` [Compound V-106], for which, at RORγ-LBD (Table 8, indazoles), the IC50 is less than 15 µM.

In turn, `COc1cccc(S(=O)(=O)n2ncc3ccc(NC(=O)Cc4ccc(Cl)cc4)cc32)c1` [Compound V-32] yielded an IC50 on RORγ-LBD (Table 8, indazoles) of less than 15 µM. `COc1cccc(S(=O)(=O)n2ncc3ccc(NC(=O)c4c(Cl)cccc4C(F)(F)F)cc32)c1` [Compound V-40] registered a half-inhibitory concentration (IC50) at RORγ-LBD (Table 8, indazoles) of less than 15 µM. Still for that read-out and setting: the same measure for `COC(=O)c1cccc(S(=O)(=O)n2ncc3ccc(NC(=O)c4c(F)cccc4Cl)cc32)c1` [Compound V-108]: less than 15 µM. The compound `Cc1cccc(S(=O)(=O)n2ncc3ccc(NC(=O)c4c(F)cccc4C(F)(F)F)cc32)c1` [Compound V-46] showed an IC50 at RORγ-LBD (Table 8, indazoles) of less than 15 µM. The compound `O=C(Nc1ccc2cnn(S(=O)(=O)c3ccccc3OC(F)(F)F)c2c1)c1c(F)cccc1Cl` [Compound V-130] gave an IC50 at RORγ-LBD (Table 8, indazoles) of less than 15 µM. At RORγ-LBD (Table 8, indazoles), `Cc1cccc(S(=O)(=O)n2ncc3ccc(NC(=O)Cc4ccc(Cl)cc4)cc32)c1` [Compound V-31] displayed a concentration for half-maximal inhibition (IC50) of less than 15 µM. Still for that read-out and setting: the same measure for `O=C(Nc1ccc2cnn(S(=O)(=O)c3ccc(Br)cc3)c2c1)c1c(F)cccc1Cl` [Compound V-98]: less than 15 µM; for `O=C(Nc1ccc2cnn(S(=O)(=O)c3ccc(OC(F)(F)F)cc3)c2c1)c1c(F)cccc1Cl` [Compound V-153]: less than 15 µM.

Values taken from patent publication US9512111B2, “N-sulfonylated tetrahydroquinolines and related bicyclic compounds for inhibition of RORγ activity and the treatment of disease” (Lycera Corporation, priority 2010, dated 2016).
